# Measurements from US4170656A, “Compositions containing cis-2-benzoyl-3-hydroxy-crotononitrile used to treat inflammation and joint deterioration” (priority 1978, dated 1979).
# Key:
# [1] = Adjuvant induced arthritis in rats (Freund's adjuvant); format: in vivo, Royal Hart, Wistar strain rats; details: for Dead/Treated At 21 Days: days 0-13
# Protocol: Groups of three Royal Hart, Wistar strain rats weighing 200±10 grams each were injected intradermally in the right hind paw with Freund's adjuvant (dried human tubercle bacilli in a mineral oil vehicle) at a dose of 2 mg./kg. of body weight. Test compound was administered orally in a 1.5% starch vehicle at various doses once daily on days 0 through 13 post challenge. Control rats were treated in a similar manner, but given only starch vehicle. On the 14th and 21st day post challenge the diameter of the injected paw (primary lesion) was measured by micrometer caliper. The volume of inflamed paws were estimated from these measurements and the results are expressed as percent inhibition of swelling as compared to controls. At the same time, the other inflamed sites, such as ears, paws and tail (seconday lesions) were observed and each rat was graded as to degree of inflammation and swelling present. The grading is based on a scale of 0 to 24, where 0 represents a complete absence of induced arthritic nodules and 24 represents the maximum degree of inflammation. The mean grade for each treated group is calculated and the effects of each compound are expressed as percent inhibition of the control grade. Table I records the results of tests conducted with a typical compound of the present invention and known anti-inflammatory agents.
# [2] = Ultraviolet induced erythema in guinea pigs; format: in vivo, Albino guinea pigs; set-up: key: sum of 3 sites, each 0 = none, 0.5 = faint, 1.0 = distinct; max 3.0; details: maximum 3.0
# Protocol: Albino guinea pigs were depilitated on their flanks, the evening before testing, with a standard mixture of barium sulfide and gum acacia. On the morning of the test, groups of four guinea pigs were dosed by gavage one hour prior (-1 hour) to ultraviolet exposure. At 0 hour they were restrained in a plastic container which allows exposure of 3 circular spots. They were then exposed to ultraviolet irradiation from a "Hanovia" Kromayer lamp, model 10, for 60 seconds. At one and four hours, the degree of erythema for each of the three sites was assessed according to the following scoring system: 0= no erythema, 0.5=incomplete circle or faint erythema, and 1.0=complete circle of distinct erythema. Thus, the maximum score for each animal was 3.0.
# [3] = Carrageenin induced paw edema in rats (acute anti-inflammatory activity); format: in vivo, Royal Hart, Wistar strain rats; details: 250 mg./kg. by gavage; 5 hours after drug (4 hours after carrageenin); ratio greater than 1.41 is active
# Protocol: In determining the acute anti-inflammatory activity of the cis-2-benzoyl-3-hydroxy-2-alkenonitriles of the present invention, Royal Hart, Wistar strain rats, ranging in weight from 80 to 90 grams were used. The rats were fasted overnight prior to dosing but had free access to water. The test compounds were administered in aqueous suspension, by gavage, in a volume of 1.7 ml. per 50 grams of rat [corresponds to hydration volume used by Winter, et al., Proc. Soc. […] The phlogistic agent used was carrageenin prepared as a sterile 1% suspension in 0.9% aqueous sodium chloride for routine testing. A volume of 0.05 ml. was injected through a 26 gauge needle into the plantar tissue of the right hind paw. Measurements were made 5 hours after drug administration (4 hours after carrageenin challenge). Volumes of both the normal and carrageenin inflammed feet were determined. The difference between the two measurements is considered to be the increased edema due to the carrageenin administration.
smiles,measurement,setting,value
CCCCC1C(=O)N(c2ccccc2)N(c2ccccc2)C1=O [Phenylbutazone],% Inhibition of Control Grade (secondary lesion),"[1]; oral 18.8 mg./kg., Day 14",4%
same,% Inhibition of Swelling (primary lesion),"[1]; oral 18.8 mg./kg., Day 14",31%
same,Mean Weight Gain,"[1]; oral 18.8 mg./kg., Day 14",50 grams
same,% Inhibition of Control Grade (secondary lesion),"[1]; oral 18.8 mg./kg., Day 21",8%
same,% Inhibition of Swelling (primary lesion),"[1]; oral 18.8 mg./kg., Day 21",7%
same,Mean Weight Gain,"[1]; oral 18.8 mg./kg., Day 21",45 grams
same,Dead/Treated At 21 Days,[1]; oral 18.8 mg./kg.,2/21
same,% Inhibition of Control Grade (secondary lesion),"[1]; oral 37.5 mg./kg., Day 14",18%
same,% Inhibition of Swelling (primary lesion),"[1]; oral 37.5 mg./kg., Day 14",56%
same,Mean Weight Gain,"[1]; oral 37.5 mg./kg., Day 14",53 grams
same,% Inhibition of Control Grade (secondary lesion),"[1]; oral 37.5 mg./kg., Day 21",13%
same,% Inhibition of Swelling (primary lesion),"[1]; oral 37.5 mg./kg., Day 21",14%
same,Mean Weight Gain,"[1]; oral 37.5 mg./kg., Day 21",53 grams
same,Dead/Treated At 21 Days,[1]; oral 37.5 mg./kg.,5/39
same,% Inhibition of Control Grade (secondary lesion),"[1]; oral 75 mg./kg., Day 14",27%
same,% Inhibition of Swelling (primary lesion),"[1]; oral 75 mg./kg., Day 14",62%
same,Mean Weight Gain,"[1]; oral 75 mg./kg., Day 14",51 grams
same,% Inhibition of Control Grade (secondary lesion),"[1]; oral 75 mg./kg., Day 21",15%
same,% Inhibition of Swelling (primary lesion),"[1]; oral 75 mg./kg., Day 21",28%
same,Mean Weight Gain,"[1]; oral 75 mg./kg., Day 21",50 grams
same,Dead/Treated At 21 Days,[1]; oral 75 mg./kg.,2/39
same,% Inhibition of Control Grade (secondary lesion),"[1]; oral 150 mg./kg., Day 14",54%
same,% Inhibition of Swelling (primary lesion),"[1]; oral 150 mg./kg., Day 14",75%
same,Mean Weight Gain,"[1]; oral 150 mg./kg., Day 14",40 grams
same,% Inhibition of Control Grade (secondary lesion),"[1]; oral 150 mg./kg., Day 21",31%
same,% Inhibition of Swelling (primary lesion),"[1]; oral 150 mg./kg., Day 21",44%
same,Mean Weight Gain,"[1]; oral 150 mg./kg., Day 21",50 grams
same,Dead/Treated At 21 Days,[1]; oral 150 mg./kg.,2/27
same,Erythema Score (avg.),"[2]; oral 7.8 mg./kg., 1 hour",1.1
same,Erythema Score (avg.),"[2]; oral 7.8 mg./kg., 4 hours",2.9
same,Erythema Score (avg.),"[2]; oral 15.6 mg./kg., 1 hour",0.4
same,Erythema Score (avg.),"[2]; oral 15.6 mg./kg., 4 hours",2.3
same,Erythema Score (avg.),"[2]; oral 31.3 mg./kg., 1 hour",0.4
same,Erythema Score (avg.),"[2]; oral 31.3 mg./kg., 4 hours",1.7
same,Erythema Score (avg.),"[2]; oral 62.5 mg./kg., 1 hour",0.3
same,Erythema Score (avg.),"[2]; oral 62.5 mg./kg., 4 hours",0.9
same,Erythema Score (avg.),"[2]; oral 125 mg./kg., 1 hour",0.1
same,Erythema Score (avg.),"[2]; oral 125 mg./kg., 4 hours",1.1
same,Erythema Score (avg.),"[2]; oral 250 mg./kg., 1 hour",0
same,Erythema Score (avg.),"[2]; oral 250 mg./kg., 4 hours",0.5
same,C/T Edema Ratio,[3],2.3
"C/C(O)=C(\C#N)C(=O)c1ccccc1 [Cis-2-benzoyl-3-hydroxy-crotononitrile, Cis-2-benzoyl-3-hydroxycrotononitrile]",% Inhibition of Control Grade (secondary lesion),"[1]; oral 25 mg./kg., Day 14",10%
same,% Inhibition of Swelling (primary lesion),"[1]; oral 25 mg./kg., Day 14",26%
same,Mean Weight Gain,"[1]; oral 25 mg./kg., Day 14",37 grams
same,% Inhibition of Control Grade (secondary lesion),"[1]; oral 25 mg./kg., Day 21",1%
same,% Inhibition of Swelling (primary lesion),"[1]; oral 25 mg./kg., Day 21",14%
same,Mean Weight Gain,"[1]; oral 25 mg./kg., Day 21",28 grams
same,Dead/Treated At 21 Days,[1]; oral 25 mg./kg.,3/18
same,% Inhibition of Control Grade (secondary lesion),"[1]; oral 50 mg./kg., Day 14",14%
same,% Inhibition of Swelling (primary lesion),"[1]; oral 50 mg./kg., Day 14",64%
same,Mean Weight Gain,"[1]; oral 50 mg./kg., Day 14",51 grams
same,% Inhibition of Control Grade (secondary lesion),"[1]; oral 50 mg./kg., Day 21",17%
same,% Inhibition of Swelling (primary lesion),"[1]; oral 50 mg./kg., Day 21",54%
same,Mean Weight Gain,"[1]; oral 50 mg./kg., Day 21",45 grams
same,Dead/Treated At 21 Days,[1]; oral 50 mg./kg.,3/36
same,% Inhibition of Control Grade (secondary lesion),"[1]; oral 100 mg./kg., Day 14",38%
same,% Inhibition of Swelling (primary lesion),"[1]; oral 100 mg./kg., Day 14",68%
same,Mean Weight Gain,"[1]; oral 100 mg./kg., Day 14",43 grams
same,% Inhibition of Control Grade (secondary lesion),"[1]; oral 100 mg./kg., Day 21",46%
same,% Inhibition of Swelling (primary lesion),"[1]; oral 100 mg./kg., Day 21",53%
same,Mean Weight Gain,"[1]; oral 100 mg./kg., Day 21",41 grams
same,Dead/Treated At 21 Days,[1]; oral 100 mg./kg.,5/18
same,progression of the arthritis and associated joint deterioration,"[1]; oral, days 0 through 13",appears to suppress the progression of the arthritis and associated joint deterioration
same,Erythema Score (avg.),"[2]; oral 15.6 mg./kg., 1 hour",2.3
same,Erythema Score (avg.),"[2]; oral 15.6 mg./kg., 4 hours",2.5
same,Erythema Score (avg.),"[2]; oral 31.3 mg./kg., 1 hour",0.8
same,Erythema Score (avg.),"[2]; oral 31.3 mg./kg., 4 hours",2.3
same,Erythema Score (avg.),"[2]; oral 62.5 mg./kg., 1 hour",0.8
same,Erythema Score (avg.),"[2]; oral 62.5 mg./kg., 4 hours",2.4
same,Erythema Score (avg.),"[2]; oral 125 mg./kg., 1 hour",0
same,Erythema Score (avg.),"[2]; oral 125 mg./kg., 4 hours",1.3
same,C/T Edema Ratio,[3],2.3
